In US12178793B2, “Ophthalmic compositions containing a nitric oxide releasing prostamide” (NICOX SA, priority 2018, dated 2024):
Converted amounts (≈) assume the structure as drawn.

Assays:
[1] = Solubility in aqueous solutions at pH 6.0 containing a solubilizing agent; type: physicochemical
[2] = cited from earlier work
[3] = Aqueous solubility of the active ingredient; type: physicochemical; conditions: water, read-out: minimum aqueous solubility
Protocol: Hexanoic acid, 6-(nitrooxy)-, (1S,2E)-3-[(1R,2R,3S,5R)-2-[(2Z)-7-(ethylamino)-7-oxo-2-hepten-1-yl]-3,5-dihydroxycyclopentyl]-1-(2-phenylethyl)-2-propen-1-yl ester is a viscous oil having a minimum aqueous solubility of 0.02 mg/ml therefore aqueous pharmaceutical compositions of hexanoic acid, 6-(nitrooxy)-, (1S,2E)-3-[(1R,2R,3S,5R)-2-[(2Z)-7-(ethylamino)-7-oxo-2-hepten-1-yl]-3,5-dihydroxycyclopentyl]-1-(2-phenylethyl)-2-propen-1-yl ester must contain solubilizing agents that increase the water solubility of the compound and allow achieving therapeutically active concentrations of the compound.

[4] = Pharmacokinetic evaluation after single ocular instillation, Study 2 (bimatoprost free acid in aqueous humor); type: in vivo, Dutch Belted Rabbits; conditions: bimatoprost free acid in aqueous humor as marker; benzalkonium chloride up to 0.02% w/w
Text: Pharmacokinetic Evaluation in Dutch Belted Rabbits after Single Ocular Instillation
The aim of this study was to assess the aqueous humor content of bimatoprost free acid following topical ocular dosing with three different aqueous ophthalmic solutions containing hexanoic acid, 6-(nitrooxy)-, (1S,2E)-3-[(1R,2R,3S,5R)-2-[(2Z)-7-(ethylamino)-7-oxo-2-hepten-1-yl]-3,5-dihydroxycyclopentyl]-1-(2-phenylethyl)-2-propen-1-yl ester (0.042% w/w) in three different vehicles reported in Table 10.
Forty animals were included in the study. They were allocated into four groups of 10 animals/group and were administered with the above reported tested aqueous ophthalmic solutions
All animals included in the study were administered by ocular instillation of both eyes by means of a graduated pipette at a volume of […]. Two animals per formula were sacrificed at 0 h (pre-dose), 1 h, 2 h, 4 h and 8 h, and aqueous humor samples were obtained immediately from both eyes.

| Compound | solubility ([1]; aqueous solution at pH 6.0 containing 0.5% (w/w) macrogol 15-hydroxystearate (Kolliphor HS15)) | solubility ([1]; aqueous solution at pH 6.0 containing 0.5% (w/w) polysorbate 80 (Tween 80)) | intra ocular pressure (IOP)-lowering ([2]; Impagnatiello et al., Invest Ophthalmol Vis Sci. 2015) | IOP-lowering efficacy versus bimatoprost ([2]; vs equimolar doses of bimatoprost, vehicle 0.25% Tween 80, 0.02% BAK, 2% glycerine and 0.1% EDTA, Br J Pharmacol 2018) | solubility [3] [µg/mL] | effect of the excipient on the ocular penetration of NCX 470 [4] |
| --- | --- | --- | --- | --- | --- | --- |
| CCNC(=O)CCC/C=C\C[C@@H]1[C@@H](/C=C/[C@H](CCc2ccccc2)OC(=O)CCCCCO[N+](=O)[O-])[C@H](O)C[C@@H]1O [NCX 470, Hexanoic acid, 6-(nitrooxy)-, (1S,2E)-3-[(1R,2R,3S,5R)-2-[(2Z)-7-(ethylamino)-7-oxo-2-hepten-1-yl]-3,5-dihydroxycyclopentyl]-1-(2-phenylethyl)-2-propen-1-yl ester] | 0.070 % (w/w) | 0.074 % (w/w) | effective | greater IOP-lowering efficacy | 20 (≈ 34.8 µM) | – |
| benzalkonium chloride | – | – | – | – | – | did not exert any effect |
